Legend:
ryegrass, Italian = test: Test A postemergence; type: in vivo, Lolium multiflorum; details: 0 to 100 scale (0 no effect, 100 complete control), approx. 10 d
Excerpt: Seeds of plant species selected from barnyardgrass (Echinochloa crus-galli), crabgrass, large (large crabgrass, Digitaria sanguinalis), kochia (Kochia scoparia), ragweed (common ragweed, Ambrosia elatior), foxtail, giant (giant foxtail, Setaria faberii), morningglory (Ipomoea spp.), pigweed (Amaranthus retroflexus), velvetleaf (Abutilon theophrasti), ryegrass, Italian (Italian ryegrass, Lolium multiflorum), wheat (Triticum aestivum), and corn (Zea mays) were planted into a blend of loam soil and sand and treated preemergence with a directed soil spray using test chemicals formulated in a non-phytotoxic solvent mixture which included a surfactant.
At the same time, plants selected from these crop and weed species and also blackgrass (Alopecurus myosuroides), and galium (catchweed bedstraw, Galium aparine), were planted in pots containing the same blend of loam soil and sand and treated with postemergence applications of test chemicals formulated in the same manner. Plants ranged in height from 2 to 10 cm and were in the one- to two-leaf stage for the postemergence treatment. Treated plants and untreated controls were maintained in a greenhouse for approximately 10 d, after which time all treated plants were compared to untreated controls and visually evaluated for injury. Plant response ratings, summarized in Table A, are based on a 0 to 100 scale where 0 is no effect and 100 is complete control. A dash (-) response means no test result.

blackgrass = test: Test C preemergence; type: in vivo, Alopecurus myosuroides; details: for Plant response rating (scale of 0 to 100 where 0 is no effect and 100 is complete control): Blackgrass, preemergence; for Blackgrass plant response rating (0 to 100): Preemergence, visual rating after 13 to 15 d
Excerpt: (§1) Seeds of plant species selected from blackgrass (Alopecurus myosuroides), ryegrass, Italian (Italian ryegrass, Lolium multiflorum), wheat (winter wheat, Triticum aestivum), galium (catchweed bedstraw, Galium aparine), corn (Zea mays), crabgrass, large (large crabgrass, Digitaria sanguinalis), foxtail, giant, (giant foxtail, Setaria faberii), johnsongrass (Sorghum halepense), lambsquarters (Chenopodium album), morningglory (Ipomoea coccinea), nutsedge, yellow (yellow nutsedge, Cyperus esculentus), pigweed (Amaranthus retroflexus), ragweed (common ragweed, Ambrosia elatior), soybean (Glycine max), barnyardgrass (Echinochloa crus-galli), oilseed rape (Brassica napus), waterhemp (common waterhemp, Amaranthus rudis), and velvetleaf (Abutilon theophrasti) were planted into a blend of loam soil and sand and treated preemergence with test chemicals formulated in a non-phytotoxic solvent mixture which included a surfactant. At the same time, plants selected from these crop and weed species and also chickweed (common chickweed, Stellaria media), oat, wild (wild oat, Avena fatua), and kochia (Kochia scoparia), were planted in pots containing Sunshine Redi-Earth® planting medium comprising spaghnum peat moss, vermiculite, starter nutrients and dolomitic limestone and treated with postemergence applications of test chemicals formulated in the same manner. Plants ranged in height from 2 to 18 cm (1- to 4-leaf stage) for postemergence treatments. […] A dash (-) response means no test result.

crabgrass, large = test: Test C preemergence; type: in vivo, Digitaria sanguinalis; details: for Plant response rating (scale of 0 to 100 where 0 is no effect and 100 is complete control): Crabgrass, Large, preemergence; for Crabgrass, Large plant response rating (0 to 100): Preemergence, visual rating after 13 to 15 d
Excerpt: as §1

wheat = test: Test A preemergence; type: in vivo, Triticum aestivum; details: Triticum aestivum, pre-emergence, 240 h, 0 to 100 scale (0 no effect, 100 complete control), read-out: Plant response rating, Wheat; for plant injury at 125 g/ha: 125 g ai/ha; for plant injury at 500 g/ha: 500 g ai/ha, approx. 10 d
Procedure, shortened: (§2)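 Herbicidal response was scored on plants treated pre- or postemergence with surfactant-containing, non-phytotoxic solvent formulations. Preemergence meant a directed spray onto soil (loam–sand) holding sown seed; postemergence plants were at one to two leaves.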

velvetleaf = test: Test A preemergence; type: in vivo, Abutilon theophrasti; details: Abutilon theophrasti, pre-emergence, 240 h, 0 to 100 scale (0 no effect, 100 complete control), read-out: Plant response rating, Velvetleaf; for pest or weed control at 125 g/ha: 125 g ai/ha; for pest or weed control at 500 g/ha: 500 g ai/ha, approx. 10 d
Procedure, shortened: as §2

| SMILES | Plant response rating, Ryegrass, Italian (ryegrass, Italian; 31 g ai/ha) | Plant response rating, Ryegrass, Italian (ryegrass, Italian; 125 g ai/ha) | Plant response rating, Ryegrass, Italian (ryegrass, Italian; 500 g ai/ha) | Plant response rating (scale of 0 to 100 where 0 is no effect and 100 is complete control) (blackgrass; 125 g ai/ha) | Plant response rating (scale of 0 to 100 where 0 is no effect and 100 is complete control) (blackgrass; 250 g ai/ha) | Blackgrass plant response rating (0 to 100) (blackgrass; 31 g ai/ha) | Blackgrass plant response rating (0 to 100) (blackgrass; 62 g ai/ha) | Plant response rating (scale of 0 to 100 where 0 is no effect and 100 is complete control) (crabgrass, large; 125 g ai/ha) | Plant response rating (scale of 0 to 100 where 0 is no effect and 100 is complete control) (crabgrass, large; 250 g ai/ha) | Crabgrass, Large plant response rating (0 to 100) (crabgrass, large; 31 g ai/ha) | Crabgrass, Large plant response rating (0 to 100) (crabgrass, large; 62 g ai/ha) | plant injury at 125 g/ha (wheat) | plant injury at 500 g/ha (wheat) | pest or weed control at 125 g/ha (velvetleaf) | pest or weed control at 500 g/ha (velvetleaf) |
| --- | --- | --- | --- | --- | --- | --- | --- | --- | --- | --- | --- | --- | --- | --- | --- |
| COc1nc(-c2ccc(C(F)(F)F)cc2)nn1Cc1ccnc(C(F)(F)F)c1 [Compound 25] | 10 | 30 |  |  |  |  |  |  |  |  |  |  |  |  |  |
| COc1nc(-c2ccccc2)nn1Cc1ccnc(C(F)(F)F)c1 [Compound 32] |  | 0 | 50 | 10 | 90 | 0 | 0 | 100 | 98 | 65 | 90 |  |  |  |  |
| CS(=O)(=O)c1nc(-c2ccc(F)cc2)nn1Cc1ccnc(C(F)(F)F)c1 [Compound 29, 4-[[3-(4-fluorophenyl)-5-(methylsulfonyl)-1H-1,2,4-triazole-1-yl]methyl]-2-(trifluoromethyl)pyridine] |  |  |  |  |  |  |  |  |  |  |  | 0% | 0% | 0% | 0% |
| Cn1nc(-c2ccc(F)cc2)nc1Oc1cccc(C(F)(F)F)c1 [Compound 5, 3-(4-fluorophenyl)-1-methyl-5-[3-(trifluoromethyl)phenoxy]-1H-1,2,4-triazole] |  |  |  |  |  |  |  |  |  |  |  | 0% | 0% | 0% | 0% |
| CCn1nc(-c2ccc(F)cc2)nc1C(=O)c1ccnc(C(F)(F)F)c1 [Compound 19, [1-ethyl-3-(4-fluorophenyl)-1H-1,2,4-triazol-5-yl][2-(trifluoromethyl)-4-pyridinyl]methanone] |  |  |  |  |  |  |  |  |  |  |  | 0% | 0% | 0% | 0% |
| CCCn1nc(-c2ccc(F)cc2)nc1Cc1ccnc(C(F)(F)F)c1 [Compound 17, 4-[[3-(4-fluorophenyl)-1-propyl-1H-1,2,4-triazol-5-yl]methyl]-2-(trifluoromethyl)pyridine] |  |  |  |  |  |  |  |  |  |  |  | 30% | 70% | 90% | 100% |
| CCn1nc(-c2ccc(F)cc2)nc1C(O)c1ccnc(C(F)(F)F)c1 (stereo not drawn) [Compound 15, α-[1-Ethyl-3-(4-fluorophenyl)-1H-1,2,4-triazol-5-yl]-2-(trifluoromethyl)-4-pyridinemethanol] |  |  |  |  |  |  |  |  |  |  |  | 0% | 0% | 0% | 0% |
| COc1nc(-c2ccc(F)cc2)nn1Cc1ccnc(C(F)(F)F)c1 [Compound 9, 4-[[3-(4-fluorophenyl)-5-methoxy-1H-1,2,4-triazol-1-yl]methyl]-2-(trifluoromethyl)pyridine] |  |  |  | 90 | 90 | 5 | 85 | 100 | 100 | 95 | 100 | 0% | 50% | 0% | 80% |
| CCCOc1nc(-c2ccccc2)nn1Cc1ccnc(C(F)(F)F)c1 [Compound 33] |  | 10 | 40 |  |  |  |  |  |  |  |  |  |  |  |  |
| Cn1nc(-c2ccc(F)cc2)nc1C(O)c1ccnc(C(F)(F)F)c1 (stereo not drawn) [Compound 14, α-[3-(4-fluorophenyl)-1-methyl-1H-1,2,4-triazol-5-yl]-2-(trifluoromethyl)-4-pyridinemethanol] |  |  |  |  |  |  |  |  |  |  |  | 0% | 0% | 0% | 0% |
| CCOc1nc(-c2ccc(Cl)cc2)nn1Cc1ccnc(C(F)(F)F)c1 [Compound 26] | 20 | 50 |  |  |  |  |  |  |  |  |  |  |  |  |  |
| CCCc1nc(-c2ccc(F)cc2)nn1Cc1ccnc(C(F)(F)F)c1 [Compound 6, 4-[[3-(4-fluorophenyl)-5-propyl-1H-1,2,4-triazol-1-yl]methyl]-2-(trifluoromethyl)pyridine] |  |  |  | 95 | 95 | 70 | 90 | 100 | 100 | 100 | 100 | 10% | 60% | 40% | 100% |

Source: US10681909B2, “Herbicidal triazoles” (FMC Corporation, priority 2014, dated 2020)
